In the NIST ThermoML archive (doi:10.1021/je100757w):
± gives the expanded uncertainty stated by the source.

Legend:
[1] = for surface tension liquid-gas: Ring tensiometer; for mass density: 101.3 kPa, Liquid
[2] = xn = mol fraction of the nth substance listed; conditions: x2 = 0; for surface tension liquid-gas: Ring tensiometer; for mass density: 101.3 kPa, Liquid

## COCCOCCOC [2,5,8-trioxanonane]
[1]; 298.15 K
  surface tension liquid-gas: 24.56 ± 0.41 mN/m
  mass density: 940.01 ± 0.83 kg/m3
[1]; 308.15 K
  surface tension liquid-gas: 27.65 ± 0.45 mN/m
  mass density: 930.03 ± 0.86 kg/m3
[1]; 318.15 K
  surface tension liquid-gas: 23.44 ± 0.4 mN/m
  mass density: 919.99 ± 0.88 kg/m3

## O [water] + COCCOCCOC
[2]; 298.15 K
  surface tension liquid-gas: 71.37 ± 1 mN/m
[2]; 308.15 K
  surface tension liquid-gas: 70.08 ± 1 mN/m
  mass density: 994.06 ± 0.27 kg/m3
[2]; 318.15 K
  surface tension liquid-gas: 69.11 ± 1 mN/m

## O [water] + COCCOCCOCCOC
[2]; 298.15 K
  surface tension liquid-gas: 71.37 ± 1 mN/m
[2]; 308.15 K
  surface tension liquid-gas: 70.08 ± 1 mN/m
  mass density: 994.06 ± 0.27 kg/m3
[2]; 318.15 K
  surface tension liquid-gas: 69.11 ± 1 mN/m

## COCCOCCOCCOCCOC [2,5,8,11,14-pentaoxapentadecane]
[1]; 298.15 K
  surface tension liquid-gas: 33.74 ± 0.69 mN/m
  mass density: 1007.26 ± 2.1 kg/m3
[1]; 308.15 K
  surface tension liquid-gas: 32.45 ± 0.67 mN/m
  mass density: 997.98 ± 2.1 kg/m3
[1]; 318.15 K
  surface tension liquid-gas: 31.71 ± 0.65 mN/m
  mass density: 988.72 ± 2.1 kg/m3

## COCCOCCOCCOC [2,5,8,11-tetraoxadodecane]
[1]; 298.15 K
  surface tension liquid-gas: 27.56 ± 0.48 mN/m
  mass density: 981.23 ± 1.1 kg/m3
[1]; 308.15 K
  surface tension liquid-gas: 28.48 ± 0.5 mN/m
  mass density: 971.71 ± 1.1 kg/m3
[1]; 318.15 K
  surface tension liquid-gas: 27.83 ± 0.49 mN/m
  mass density: 962.19 ± 1.1 kg/m3

## O [water] + COCCOCCOCCOCCOC
[2]; 298.15 K
  surface tension liquid-gas: 71.37 ± 1 mN/m
[2]; 308.15 K
  surface tension liquid-gas: 70.08 ± 1 mN/m
  mass density: 994.06 ± 0.27 kg/m3
[2]; 318.15 K
  surface tension liquid-gas: 69.11 ± 1 mN/m
